ChEMBL document CHEMBL1201862, “PubChem BioAssay data set” (2004)
Active and inactive are the calls of the source.

Legend:
[1] = HeLa cell cytotoxicity, dose response, cytotoxicity control for MgcRacGAP inhibitor project (AID 624300); type: functional
[2] = inhibitors of Vif binding to APOBEC3G peptide, primary screen, biochemical, TR-FRET, GST-Vif 1-94, biotin-A3G peptide, dose response retest (AID 1117319); type: functional;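 further: TR-FRET signal of purified GST-Vif binding a biotinylated A3G peptide; inhibitors lower the FRET signal by blocking Vif and A3G binding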
[3] = target: T1, Rac GTPase-activating protein 1 (Homo sapiens, UniProt Q9H0H5); assay: MgcRacGAP GTPase-activating activity inhibitors, confirmation, biochemical, ADP Hunter fluorescence, primary and confirmatory (AID 624330); type: functional
T1 sequence (Q9H0H5 whole entry): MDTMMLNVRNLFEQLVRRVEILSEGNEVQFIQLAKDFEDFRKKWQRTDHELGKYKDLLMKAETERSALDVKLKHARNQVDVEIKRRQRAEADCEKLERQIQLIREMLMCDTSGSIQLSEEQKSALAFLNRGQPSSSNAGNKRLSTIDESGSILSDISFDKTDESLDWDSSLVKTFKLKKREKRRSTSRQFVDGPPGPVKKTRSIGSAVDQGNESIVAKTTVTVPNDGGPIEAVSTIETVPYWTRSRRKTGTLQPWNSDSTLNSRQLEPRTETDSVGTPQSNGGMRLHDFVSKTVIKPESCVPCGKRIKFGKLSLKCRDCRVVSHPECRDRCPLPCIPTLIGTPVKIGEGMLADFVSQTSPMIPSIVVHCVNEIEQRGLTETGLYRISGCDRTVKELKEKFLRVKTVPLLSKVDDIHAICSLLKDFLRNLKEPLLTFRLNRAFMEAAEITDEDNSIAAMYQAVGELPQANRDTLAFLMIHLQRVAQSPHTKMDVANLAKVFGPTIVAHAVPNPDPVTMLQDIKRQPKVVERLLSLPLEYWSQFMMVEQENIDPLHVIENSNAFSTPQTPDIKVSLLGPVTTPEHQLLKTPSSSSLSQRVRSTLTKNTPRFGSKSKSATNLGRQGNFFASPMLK

Vero = Vero cell cytotoxicity, cytotoxicity control for flavivirus capping enzyme inhibitors (AID 588742); type: functional; conditions: Chlorocebus sabaeus
[4] = THP-1 cell cytotoxicity, dose response, cytotoxicity control for Vif-APOBEC3G degradation inhibitor project, THP-1 cells (AID 1117359); type: functional; conditions: Human immunodeficiency virus 1, THP-1
Cytochrome P450 3A4 = Cytochrome P450 3A4 (Homo sapiens, UniProt P08684);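 further: CYP3A4 tested as one member of a cytochrome P450 panel screen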
Sequence of Cytochrome P450 3A4 (P08684 whole entry): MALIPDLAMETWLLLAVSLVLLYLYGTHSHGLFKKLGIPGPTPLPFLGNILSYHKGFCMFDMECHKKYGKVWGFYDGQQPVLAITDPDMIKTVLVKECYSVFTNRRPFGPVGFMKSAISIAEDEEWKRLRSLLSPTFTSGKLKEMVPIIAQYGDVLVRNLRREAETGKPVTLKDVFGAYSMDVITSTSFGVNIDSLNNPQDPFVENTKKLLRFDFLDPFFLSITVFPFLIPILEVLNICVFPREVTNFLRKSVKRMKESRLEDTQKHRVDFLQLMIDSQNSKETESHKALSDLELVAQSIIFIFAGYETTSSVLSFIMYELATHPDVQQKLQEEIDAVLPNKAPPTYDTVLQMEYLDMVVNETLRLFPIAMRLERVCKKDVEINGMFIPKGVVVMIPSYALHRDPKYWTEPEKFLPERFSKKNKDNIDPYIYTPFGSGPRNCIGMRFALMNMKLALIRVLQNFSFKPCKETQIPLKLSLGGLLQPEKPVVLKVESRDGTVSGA

Cytochrome P450 2C9 = Cytochrome P450 2C9 (Homo sapiens, UniProt P11712)
Sequence of Cytochrome P450 2C9 (P11712 whole entry): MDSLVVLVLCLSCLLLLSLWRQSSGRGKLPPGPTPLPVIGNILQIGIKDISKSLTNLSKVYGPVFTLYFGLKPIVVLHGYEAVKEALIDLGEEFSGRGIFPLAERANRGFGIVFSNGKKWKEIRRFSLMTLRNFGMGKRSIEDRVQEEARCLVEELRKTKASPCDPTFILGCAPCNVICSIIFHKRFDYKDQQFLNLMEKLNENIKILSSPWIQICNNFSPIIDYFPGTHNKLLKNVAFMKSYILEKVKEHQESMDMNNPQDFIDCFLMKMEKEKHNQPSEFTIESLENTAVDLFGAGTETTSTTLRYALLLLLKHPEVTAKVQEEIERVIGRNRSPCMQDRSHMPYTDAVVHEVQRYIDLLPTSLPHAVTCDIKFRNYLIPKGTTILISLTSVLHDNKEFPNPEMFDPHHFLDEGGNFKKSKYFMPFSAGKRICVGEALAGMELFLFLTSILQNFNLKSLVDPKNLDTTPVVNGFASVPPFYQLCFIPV

Cytochrome P450 1A2 = target: T2, Cytochrome P450 1A2 (Homo sapiens, UniProt P05177);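 further: PubChem cytochrome P450 panel assay, CYP1A2 panel member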
T2 sequence (P05177 whole entry): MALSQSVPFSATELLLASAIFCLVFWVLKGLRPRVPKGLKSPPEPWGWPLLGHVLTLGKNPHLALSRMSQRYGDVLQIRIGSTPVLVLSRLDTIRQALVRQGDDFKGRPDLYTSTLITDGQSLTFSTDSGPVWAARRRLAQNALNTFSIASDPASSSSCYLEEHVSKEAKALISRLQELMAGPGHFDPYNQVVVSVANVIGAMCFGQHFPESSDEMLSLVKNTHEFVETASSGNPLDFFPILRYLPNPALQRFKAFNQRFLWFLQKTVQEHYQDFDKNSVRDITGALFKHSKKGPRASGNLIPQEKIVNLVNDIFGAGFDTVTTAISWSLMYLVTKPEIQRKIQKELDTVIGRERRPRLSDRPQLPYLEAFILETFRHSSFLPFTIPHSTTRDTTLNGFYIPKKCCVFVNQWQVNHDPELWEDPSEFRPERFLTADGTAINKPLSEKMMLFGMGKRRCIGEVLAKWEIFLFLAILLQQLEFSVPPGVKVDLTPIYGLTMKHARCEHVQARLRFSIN

[5] = C. albicans growth with fluconazole, confirmation, fluorescence, retest (AID 2467); type: functional, cell-based
Albumin = Albumin (Bos taurus, UniProt P02769); assay: Counterscreen for inhibitors of T-cell receptor (TCR)-CD3 interaction: Fluorescence-based biochemical high throughput dose response assay to identify inhibitors of T-cell receptor (TCR)-CD3 interaction using a TAMRA-labeled BSA probe.; type: functional
Sequence of Albumin (P02769 whole entry): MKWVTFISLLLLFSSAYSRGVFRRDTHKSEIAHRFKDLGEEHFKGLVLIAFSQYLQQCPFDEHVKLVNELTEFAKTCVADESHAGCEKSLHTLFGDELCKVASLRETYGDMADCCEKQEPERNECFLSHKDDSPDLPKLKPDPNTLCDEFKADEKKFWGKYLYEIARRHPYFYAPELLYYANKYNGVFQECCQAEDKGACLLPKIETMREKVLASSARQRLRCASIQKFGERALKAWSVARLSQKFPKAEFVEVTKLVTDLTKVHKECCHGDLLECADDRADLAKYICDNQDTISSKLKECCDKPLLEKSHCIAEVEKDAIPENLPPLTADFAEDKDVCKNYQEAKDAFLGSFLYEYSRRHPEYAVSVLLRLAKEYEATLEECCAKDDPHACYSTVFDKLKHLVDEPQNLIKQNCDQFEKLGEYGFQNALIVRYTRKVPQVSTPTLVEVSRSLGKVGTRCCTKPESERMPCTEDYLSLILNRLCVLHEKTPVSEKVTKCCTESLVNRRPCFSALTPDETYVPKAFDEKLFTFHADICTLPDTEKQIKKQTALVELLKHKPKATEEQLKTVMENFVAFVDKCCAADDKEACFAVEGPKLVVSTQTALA

[6] = NIH-3T3 fibroblast cytotoxicity, dose response, cytotoxicity control, cell-based, fluorescence, Alamar Blue, secondary assay (AID 2327); type: functional;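 further: NIH-3T3 mouse fibroblasts cultured with fluconazole at 8 µg/mL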
[7] = target: T3, Sentrin-specific protease 6 (Homo sapiens, UniProt Q9GZR1); type: functional;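 further: Luminescence-based dose-response confirmatory assay of SENP6 inhibition, following up an ultra-high-throughput screen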
T3 sequence (Q9GZR1 whole entry): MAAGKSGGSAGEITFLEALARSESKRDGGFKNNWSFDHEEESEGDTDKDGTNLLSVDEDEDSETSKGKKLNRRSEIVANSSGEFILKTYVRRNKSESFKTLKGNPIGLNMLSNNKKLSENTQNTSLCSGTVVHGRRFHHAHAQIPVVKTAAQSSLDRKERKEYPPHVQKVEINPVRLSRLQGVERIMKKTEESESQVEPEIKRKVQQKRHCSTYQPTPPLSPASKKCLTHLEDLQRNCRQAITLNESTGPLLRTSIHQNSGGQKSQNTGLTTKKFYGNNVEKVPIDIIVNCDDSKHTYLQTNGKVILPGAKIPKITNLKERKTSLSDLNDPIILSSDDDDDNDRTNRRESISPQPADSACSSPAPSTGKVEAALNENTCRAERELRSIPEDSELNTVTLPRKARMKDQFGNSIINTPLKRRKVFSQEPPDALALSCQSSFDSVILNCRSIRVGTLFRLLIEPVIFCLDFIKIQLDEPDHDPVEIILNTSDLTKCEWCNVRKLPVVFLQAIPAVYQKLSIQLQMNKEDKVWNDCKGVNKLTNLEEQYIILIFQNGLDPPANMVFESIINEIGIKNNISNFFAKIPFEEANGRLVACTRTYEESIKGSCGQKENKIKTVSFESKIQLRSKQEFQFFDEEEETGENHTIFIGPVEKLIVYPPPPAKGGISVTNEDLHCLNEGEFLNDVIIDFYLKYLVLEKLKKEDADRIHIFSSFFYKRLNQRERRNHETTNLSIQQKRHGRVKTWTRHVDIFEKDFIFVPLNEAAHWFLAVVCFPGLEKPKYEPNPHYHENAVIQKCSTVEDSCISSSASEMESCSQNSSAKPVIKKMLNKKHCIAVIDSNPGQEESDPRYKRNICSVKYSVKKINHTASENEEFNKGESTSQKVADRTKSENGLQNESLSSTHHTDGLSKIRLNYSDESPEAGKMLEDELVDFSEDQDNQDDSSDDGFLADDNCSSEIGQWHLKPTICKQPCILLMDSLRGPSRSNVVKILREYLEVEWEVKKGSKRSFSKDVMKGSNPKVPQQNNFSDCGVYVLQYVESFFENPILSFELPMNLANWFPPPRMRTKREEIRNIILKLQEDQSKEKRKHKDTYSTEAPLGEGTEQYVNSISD

[8] = MC4R antagonists, dose response, counter-screen for LGR2 antagonist project, cell-based, plate reader, cherry pick (AID 743444); type: functional;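 further: transfected HEK 293 cells stimulated with alpha-MSH peptide; potency of inhibitors of the alpha-MSH evoked signal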
[9] = A549 cell cytotoxicity, dose response, cytotoxicity control, plate reader, cherry-pick, antagonist series (AID 743412); type: functional, cell-based
Caspase-3 = target: T4, Caspase-3 (Homo sapiens, UniProt P42574); type: functional;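 further: Dose-response selectivity test against caspase-3 for candidate inhibitors of sentrin-specific proteases (SENPs)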
T4 sequence (P42574 whole entry): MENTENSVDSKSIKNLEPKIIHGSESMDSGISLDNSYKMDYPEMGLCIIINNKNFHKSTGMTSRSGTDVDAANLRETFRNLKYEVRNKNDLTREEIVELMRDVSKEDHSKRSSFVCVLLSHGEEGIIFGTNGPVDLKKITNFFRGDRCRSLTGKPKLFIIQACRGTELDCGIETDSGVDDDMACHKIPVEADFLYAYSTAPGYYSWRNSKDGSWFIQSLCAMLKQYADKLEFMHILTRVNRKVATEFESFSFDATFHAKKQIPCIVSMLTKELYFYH

[10] = HepG2 cell cytotoxicity, dose response, cytotoxicity control, plate reader, cherry-pick, antagonist series (AID 743416); type: functional, cell-based
[11] = LGR2 antagonists, dose response, cell-based, HEK293, CRE-luciferase reporter, cherry pick, set 2 (AID 743343); type: functional;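 further: transfected cells were stimulated with diluted bursicon conditioned medium after compound addition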
[12] = target: T5, Sentrin-specific protease 7 (Homo sapiens, UniProt Q9BQF6); type: functional;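 further: Luminescence-based dose-response confirmation of ultra-high-throughput screening hits, measuring inhibition of SENP7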
T5 sequence (Q9BQF6 whole entry): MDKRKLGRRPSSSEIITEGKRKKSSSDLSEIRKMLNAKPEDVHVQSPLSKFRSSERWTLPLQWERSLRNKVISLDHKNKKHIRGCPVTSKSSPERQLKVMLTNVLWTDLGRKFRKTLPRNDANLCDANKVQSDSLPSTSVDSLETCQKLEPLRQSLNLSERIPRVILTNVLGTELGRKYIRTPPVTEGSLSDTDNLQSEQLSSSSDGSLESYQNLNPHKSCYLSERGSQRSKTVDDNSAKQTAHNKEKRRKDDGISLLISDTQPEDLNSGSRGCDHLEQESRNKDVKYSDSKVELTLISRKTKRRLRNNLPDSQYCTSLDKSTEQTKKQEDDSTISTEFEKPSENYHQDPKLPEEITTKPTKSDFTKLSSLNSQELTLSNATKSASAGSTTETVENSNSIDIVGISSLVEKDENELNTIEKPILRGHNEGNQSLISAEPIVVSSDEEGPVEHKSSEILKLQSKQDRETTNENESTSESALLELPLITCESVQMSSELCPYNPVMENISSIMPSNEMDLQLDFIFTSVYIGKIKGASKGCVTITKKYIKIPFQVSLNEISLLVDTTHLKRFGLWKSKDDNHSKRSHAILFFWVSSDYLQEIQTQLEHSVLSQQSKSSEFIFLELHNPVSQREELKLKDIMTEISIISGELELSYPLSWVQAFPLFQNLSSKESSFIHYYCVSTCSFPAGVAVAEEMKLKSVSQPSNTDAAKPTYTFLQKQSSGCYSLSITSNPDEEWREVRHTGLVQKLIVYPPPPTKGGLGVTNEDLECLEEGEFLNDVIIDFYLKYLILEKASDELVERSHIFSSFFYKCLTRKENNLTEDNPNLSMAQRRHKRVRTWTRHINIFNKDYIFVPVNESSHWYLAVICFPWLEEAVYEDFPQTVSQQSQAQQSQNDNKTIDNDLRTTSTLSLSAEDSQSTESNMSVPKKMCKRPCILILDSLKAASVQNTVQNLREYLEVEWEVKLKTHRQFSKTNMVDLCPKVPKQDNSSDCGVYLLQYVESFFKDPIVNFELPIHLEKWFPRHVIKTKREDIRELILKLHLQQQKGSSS

[13] = target: T6, Sentrin-specific protease 8 (Homo sapiens, UniProt Q96LD8); type: functional;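 further: luminescence read-out of SENP8 inhibition, dose-response confirmation following an ultra-high-throughput screen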
T6 sequence (Q96LD8 whole entry): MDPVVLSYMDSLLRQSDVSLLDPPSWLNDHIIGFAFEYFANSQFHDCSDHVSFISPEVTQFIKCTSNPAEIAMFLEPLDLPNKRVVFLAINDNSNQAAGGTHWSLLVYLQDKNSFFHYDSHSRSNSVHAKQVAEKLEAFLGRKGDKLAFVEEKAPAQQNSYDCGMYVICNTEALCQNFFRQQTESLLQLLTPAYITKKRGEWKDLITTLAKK

[14] = HEK293 cell cytotoxicity, dose response, cytotoxicity control, plate reader, cherry-picked samples (AID 743446); type: functional, cell-based

Structure (SMILES): Cc1cc(C)n(CC(O)CN2c3ccccc3Sc3ccccc32)n1 (centres undefined)
- CC50 [1]: 100 µM (active)
- IC50 [2]: > 100 µM (active)
- IC50 [3]: 82.6 µM (active)

Structure (SMILES): CCOc1cccc(CNc2ccc(O)cc2)c1OCc1ccccc1Cl
- CC50 (Vero): > 40 µM (active)
- CC50 [4]: 23 µM (active)

Structure (SMILES): Cc1ccc(NC(=O)CSc2nnc(C3CCCCC3)n2N)cc1F
- IC50 [2]: > 100 µM (active)

Structure (SMILES): CCN(CC)C(=O)CCNS(=O)(=O)c1ccc(C)cc1
- AC50 (Cytochrome P450 3A4): 25.1 µM (inconclusive)
- AC50 (Cytochrome P450 2C9): inconclusive
- IC50 [2]: > 100 µM (active)
- AC50 (Cytochrome P450 1A2): 28.2 µM (inconclusive)

Structure (SMILES): O=C(NNC(=O)c1ccccc1O)c1ccc(-c2ccc([N+](=O)[O-])cc2)o1
- EC50 [5]: > 38 µM (not active)
- CC50 [4]: 15.3 µM (active)
- IC50 (Albumin): > 94.1 µM (inactive)
- EC50 [6]: > 150 µM (inactive)

Structure (SMILES): O=C(OC(C(=O)NCc1cccs1)c1ccccc1Cl)c1ccco1 (centres undefined)
- CC50 [4]: > 40 µM (active)

Structure (SMILES): COC(=O)Cc1cc(O)n2nc(C)cc2n1
- IC50 [2]: > 100 µM (active)

Structure (SMILES): Cc1ccc(-c2csc(NC(=O)c3ccc(-c4ccccc4)cc3)n2)o1
- IC50 [2]: > 100 µM (active)

Structure (SMILES): COc1ccccc1C(=O)C1CCCN(Cc2ccc3c(c2)OCCO3)C1 (centres undefined)
- CC50 [4]: > 40 µM (active)

Structure (SMILES): O=C(O)CN1C(=O)CSc2ccccc21
- IC50 [2]: > 100 µM (active)

Structure (SMILES): C/C(O)=C1/C(=O)N(C)C(=S)N(c2ccccc2)C1=O
- IC50 [2]: > 100 µM (active)

Structure (SMILES): Cn1c(-c2ccccc2)cc2onc(-c3ccccc3)c2c1=O
- IC50 [7]: 1.51 µM (active)
- AC50 [8]: 3.66 µM (active)
- AC50 [9]: > 52 µM (inactive)
- IC50 (Caspase-3): 2.4 µM (active)
- AC50 [10]: 34.4 µM (active)
- AC50 [11]: 3.08 µM (active)
- IC50 [12]: 1.14 µM (active)
- IC50 [13]: 3.11 µM (active)
- AC50 [14]: 51.9 µM (active)
